# Measured values: ChEMBL document CHEMBL6074686 (Eur J Med Chem, 2025)
# Active and inactive are the calls of the source. The rule behind the calls is not given here.
# Assays:
# MCF7 [1] = experiment: Inhibition of cell migration in human MCF7 cells assessed as area of migrated cells at 50 nM incubated for 24 hrs by crystal violet staining based inverted microscopic analysis (reference value: 18.5 +/- 0.3 mm^3); format: functional
# SK-OV-3 [2] = experiment: Induction of cell cycle arrest in human SK-OV-3 cells assessed as increase in G2/M phase cells at 5 nM incubated for 24 hrs PI staining based flow cytometric analysis (reference value: 24.6 +/- 2.0%); format: functional
# [3] = Toxicity in female BALB/c nude mouse xenografted with human SK-OV-3 cells assessed as effect on physiological status at 15 mg/kg, administered via tail vein for 5 days and measured daily; format: organism-based; details: in vivo, iv, 120 h, time 5 day
# SK-OV-3 [4] = experiment: Induction of apoptosis in human SK-OV-3 cells assessed as upregulation of cleaved-caspase-3 expression incubated for 24 hrs by Western blotting analysis; format: functional, cell-based; details: dose 25-100 nM
# MCF7 [5] = experiment: Inhibition of cell migration in human MCF7 cells assessed as wound closure at 1.25 nM incubated for 24 hrs by wound healing assay (reference value: 44.5 +/- 8.8%); format: functional; design: scale not given: the % may be the effect or the level left
# MCF7 [6] = experiment: Inhibition of cell migration in human MCF7 cells assessed as ratio of migrated cells at 25 nM incubated for 24 hrs by crystal violet staining based inverted microscopic analysis (reference value: 100%); format: functional; design: scale not given: the % may be the effect or the level left
# MCF7 [7] = experiment: Induction of apoptosis in human MCF7 cells assessed as downregulation of cleaved-PARP expression at 100 nM incubated for 24 hrs by Western blotting analysis; format: functional, cell-based
# [8] = Toxicity in female BALB/c nude mouse xenografted with human SK-OV-3 cells assessed as drug tolerance reduction in food intake at 30 mg/kg, administered via tail vein for 5 days and measured daily; format: organism-based; details: in vivo, iv, 120 h, time 5 day
# MCF7 [9] = experiment: Inhibition of cell migration in human MCF7 cells assessed as ratio of migrated cells at 12.5 nM incubated for 24 hrs by crystal violet staining based inverted microscopic analysis (reference value: 100%); format: functional; design: scale not given: the % may be the effect or the level left
# MCF7 [10] = experiment: Inhibition of cell migration in human MCF7 cells assessed as ratio of migrated cells at 6.25 nM incubated for 24 hrs by crystal violet staining based inverted microscopic analysis (reference value: 100%); format: functional; design: scale not given: the % may be the effect or the level left
# [11] = Toxicity in female BALB/c nude mouse xenografted with human SK-OV-3 cells assessed as drug tolerance by measuring loose stools at 30 mg/kg, administered via tail vein for 5 days and measured daily; format: organism-based, Feces; details: in vivo, iv, 120 h, time 5 day
# SK-OV-3 [12] = experiment: Inhibition of cell migration in human SK-OV-3 cells assessed as wound closure ratio at 12.5 nM incubated for 24 hrs by wound healing assay (reference value: 100%); format: functional; design: scale not given: the % may be the effect or the level left
# SK-OV-3 [13] = experiment: Induction of cell cycle arrest in human SK-OV-3 cells assessed as downregulation of Cdc-2 expression at 100 nM incubated for 24 hrs by Western blotting analysis; format: functional, cell-based
# SK-OV-3 [14] = experiment: Antitumor activity against human SK-OV-3 cells xenografted xenografted in female BALB/c nude mouse assessed as decrease in Ki-67 expression level in tumor at 10 mg/kg, […] via tail vein once every 2 to 3 days by immunohistochemistry analysis; format: functional, organism-based; details: time 2-3 day
# MCF7 [15] = experiment: Inhibition of cell migration in human MCF7 cells assessed as area of migrated cells at 3.125 nM incubated for 24 hrs by crystal violet staining based inverted microscopic analysis (reference value: 18.5 +/- 0.3 mm^3); format: functional
# SK-OV-3 [16] = experiment: Inhibition of cell migration in human SK-OV-3 cells assessed as wound closure ratio at 50 nM incubated for 24 hrs by wound healing assay (reference value: 100%); format: functional; design: scale not given: the % may be the effect or the level left
# MCF7 [17] = experiment: Inhibition of cell migration in human MCF7 cells assessed as wound closure ratio at 10 nM incubated for 24 hrs by wound healing assay (reference value: 100%); format: functional; design: scale not given: the % may be the effect or the level left
# SK-OV-3 [18] = experiment: Inhibition of cell migration in human SK-OV-3 cells assessed as reduction in wound closure at 25 nM incubated for 24 hrs by wound healing assay (reference value: 21.8 +/- 7.6%); format: functional; details: SK-OV-3, 24 h, values are per cent of control
# MCF7 [19] = experiment: Inhibition of cell migration in human MCF7 cells assessed as area of migrated cells at 25 nM incubated for 24 hrs by crystal violet staining based inverted microscopic analysis (reference value: 18.5 +/- 0.3 mm^3); format: functional
# MCF7 [20] = experiment: Inhibition of cell migration in human MCF7 cells assessed as wound closure ratio at 5 nM incubated for 24 hrs by wound healing assay (reference value: 100%); format: functional; design: scale not given: the % may be the effect or the level left
# SK-OV-3 [21] = experiment: Inhibition of cell migration in human SK-OV-3 cells assessed as decrease in cell density incubated for 24 hrs by wound healing assay; format: functional, cell-based; details: dose 3.125-50 nM
# MCF7 [22] = experiment: Induction of apoptosis in human MCF7 cells assessed as upregulation of Bcl-2 expression at 100 nM incubated for 24 hrs by Western blotting analysis; format: functional, cell-based
# [23] = Toxicity in female BALB/c nude mouse xenografted with human SK-OV-3 cells assessed as pathological changes in liver at 5 to 10 mg/kg, […] via tail vein once every 2 to 3 days by H and E staining based analysis; format: organism-based; details: in vivo, dose lower 5 mg/kg, time lower 2 day, dose upper 10 mg/kg, time upper 3 day
# SK-OV-3 [24] = experiment: Inhibition of cell migration in human SK-OV-3 cells assessed as reduction in wound closure at 50 nM incubated for 24 hrs by wound healing assay (reference value: 21.8 +/- 7.6%); format: functional; details: SK-OV-3, 24 h, values are per cent of control
# MCF7 [25] = experiment: Inhibition of cell migration in human MCF7 cells assessed as wound closure ratio at 1.25 nM incubated for 24 hrs by wound healing assay (reference value: 100%); format: functional; design: scale not given: the % may be the effect or the level left
# MCF7 [26] = experiment: Induction of apoptosis in human MCF7 cells assessed as upregulation of Bax expression at 100 nM incubated for 24 hrs by Western blotting analysis; format: functional, cell-based
# [27] = Toxicity in female BALB/c nude mouse xenografted with human SK-OV-3 cells assessed as pathological changes in lung at 5 to 10 mg/kg, […] via tail vein once every 2 to 3 days by H and E staining based analysis; format: organism-based; details: in vivo, dose lower 5 mg/kg, time lower 2 day, dose upper 10 mg/kg, time upper 3 day
# SK-OV-3 [28] = experiment: Antitumor activity against human SK-OV-3 cells xenografted xenografted in female BALB/c nude mouse assessed as upregulation of cleaved PARP expression level in tumor at 5 to 10 mg/kg, […] via tail vein once every 2 to 3 days by immunohistochemistry analysis; format: functional, organism-based; details: dose 5-10 mg/kg, time 2-3 day
# SK-OV-3 [29] = experiment: Induction of apoptosis in human SK-OV-3 cells assessed as upregulation of Bax expression at 100 nM incubated for 24 hrs by Western blotting analysis; format: functional, cell-based
# SK-OV-3 [30] = experiment: Induction of apoptosis in human SK-OV-3 cells assessed as increase in apoptotic cells at 2.5 to 40 nM by IncuCyte live-cell imaging analysis; format: functional, cell-based; details: dose 2.5-40 nM, time lower 24.0 hrs, time upper […]
# SK-OV-3 [31] = experiment: Inhibition of cell migration in human SK-OV-3 cells assessed as wound closure ratio at 6.25 nM incubated for 24 hrs by wound healing assay (reference value: 100%); format: functional; design: scale not given: the % may be the effect or the level left
# MCF7 [32] = experiment: Antitumor activity against human MCF7 cells assessed as reduction in cell viability incubated for 72 hrs by CCK8 assay; format: functional, cell-based; details: MCF7, 72 h
# SK-OV-3 [33] = experiment: Inhibition of colony formation in human SK-OV-3 cells at 2.5 nM incubated for 12 days by crystal violet staining based assay relative to control; format: functional; details: SK-OV-3, 288 h, time 12 day
smiles,measurement,setting,value
CNc1nc(N2CCCc3cc(OC)ccc32)c2cc(F)ccc2n1,Activity,MCF7 [1],2.2 mm3
same,Activity,SK-OV-3 [2],29.6%
same,Activity,[3],Toxic
same,Activity,SK-OV-3 [4],Dose-dependent-effect
same,Activity,MCF7 [5],47%
same,Activity,MCF7 [6],13.2%
same,Activity,MCF7 [7],inactive
same,Activity,[8],Toxic
same,Activity,MCF7 [9],60.4%
same,Activity,MCF7 [10],88.6%
same,Activity,[11],Toxic
same,Activity,SK-OV-3 [12],65.8%
same,Activity,SK-OV-3 [13],inactive
same,Activity,SK-OV-3 [14],Active
same,Activity,MCF7 [15],17.5 mm3
same,Activity,SK-OV-3 [16],22.7%
same,Activity,MCF7 [17],104.4%
same,"response, % of control at 0.025 µM",SK-OV-3 [18],11.2%
same,Activity,MCF7 [19],2.4 mm3
same,Activity,MCF7 [20],97.3%
same,inhibition,SK-OV-3 [21],Dose-dependent-effect
same,Activity,MCF7 [22],inactive
same,Activity,[23],Non-toxic
same,"response, % of control at 0.05 µM",SK-OV-3 [24],4.9%
same,Activity,MCF7 [25],105.5%
same,Activity,MCF7 [26],Active
same,Activity,[27],Non-toxic
same,Activity,SK-OV-3 [28],Active
same,Activity,SK-OV-3 [29],Active
same,Activity,SK-OV-3 [30],Time-dependent-effect
same,Activity,SK-OV-3 [31],84.3%
same,IC50,MCF7 [32],0.4 nM
same,inhibition at 0.0025 µM,SK-OV-3 [33],56.2%
